Reference: patent US20230226061A1, “COMBINATION CANCER THERAPY WITH DYRK1 INHIBITORS AND INHIBITORS OF THE RAS-RAF-MEK-ERK (MAPK) PATHWAY” (Felicitex Therapuetics, Inc., priority 2022, published 2023)
Read-outs that look alike come from different tables or passages of the source.

Legend:
[1] = system: colon cancer SW620 cells (G12V); experiment: FACS analysis of cell cycle distribution (acridine orange), SW620; format: cell-based; conditions: SW620, 5 μM Compound I-7 and 20 nM trametinib, 24 hours
Description: SW620 cells were cultured, treated, and analyzed as described in Example 1. The results when different concentrations of trametinib, Compound I-7, or both trametinib and Compound I-7 are present are shown in FIG. 10.

[2] = system: H2122 NSCLC cells (KRAS G12C); experiment: FACS analysis of cell cycle distribution (acridine orange), H2122; format: cell-based
[3] = system: DYRK1B, MAPK, p27 in SW620 cells; experiment: Western blot analysis of protein expression in SW620 cells; format: cell-based; conditions: SW620, 20 nM trametinib and 5 μM compound I-7, vs trametinib alone
Description: For Western Blot analysis cells were seeded into 6-well plates at 5×10^5-9×10^5 cells/well (depending on the cell size and rate of proliferation), allowed to attach for 24 hours, then treated with compounds for 24 hours, and harvested. Immunoblotting was performed using conventional techniques, as described in Cell Signaling Technologies Western Blotting protocol (www.cellsignal.com).
Antibodies used for blotting were from Cell Signaling Technology (CST): DYRK1B (D40D1) Rabbit mAb #5672; β-Actin (13E5) Rabbit mAb #4970; Anti-rabbit IgG, HIRP-linked Antibody #7074. The Primary Antibody Dilution Buffer 1×TBST with 5% BSA (CST #9998) was used. For detection, SignalFire™ ECL Reagent (CST #6883) was used.
The expression levels of DYRK1B, ph-t202 MAPK, total MAPK, ph-S10 p27, total p27 and β-actin in SW620 cells following the 24 hours treatment with trametinib or combination of trametinib and compound I-7 as observed by Western blot analysis are shown in FIG. 13. The expression of DYRK1B protein was compared to that in untreated cells incubated in regular growth medium containing FBS (FBS+) or serum free medium (FBS−), single treatment with trametinib to the treatment with combination of trametinib and compound I-7.

[4] = system: NSCLC H23 cells (KRAS-G12C); experiment: Cell viability assay in 2D cell culture (CellTiter-Glo), H23; conditions: for EC50: Homo sapiens, NCI-H23, 96 h
[5] = system: NSCLC A549 cells (KRAS-G12S); experiment: Cell viability assay in 2D cell culture (CellTiter-Glo), A549; conditions: for EC50: A549, 96 h
[6] = system: NSCLC H2122 cells (KRAS-G12C); experiment: Cell viability assay in 2D cell culture (CellTiter-Glo), H2122
[7] = system: ovarian cancer OVCAR cells (wild KRAS); experiment: Cell viability assay in 2D cell culture (CellTiter-Glo), OVCAR; format: cell-based; conditions: for EC50: 96 h
[8] = system: NSCLC H1975 cells (wild-type KRAS); experiment: Cell viability assay in 2D cell culture (CellTiter-Glo), H1975; format: cell-based; conditions: for EC50: Homo sapiens, NCI-H1975, 96 h, H1975, 96 h
[9] = system: NSCLC H358 cells (KRAS-G12C); experiment: Cell viability assay in 2D cell culture (CellTiter-Glo), H358
[10] = system: quiescent and proliferating pancreatic cancer cells; conditions: reported by Ewton et al. 2011; cited from earlier work
[11] = system: 3D spheroids of NSCLC H23 cells (KRAS-G12C); experiment: Cell viability assay in 3D cell culture (spheroids), H23; format: cell-based; conditions: Homo sapiens, NCI-H23, H23 3D spheroids, read-out: EC50 for trametinib
Description: (§1) For the treatment, 50 μL of media was removed from each well and replaced with fresh media with compounds. […] If the treatment time exceeded 4 days, 70 μL of media in each well was replaced with fresh media containing the test compound every fourth day. Each treatment was performed in duplicate. […] Prior to analysis, the spheroids were photographed at 50× magnification.
as §1, with “magnification” for “magnification.”

[12] = H2122, 5 μM Compound I-7 and 100 nM AMG-510, FBS+
[13] = H2122, 5 μM Compound I-7 and 100 nM MRTX 849, 48 hours

## CCOC(=N)c1nc2ccc3ncnc(Nc4cc(F)c(F)cc4Cl)c3c2s1 [Compound I-7]
[1]
  apoptotic cells (sub-G0 population): significant increases in apoptotic cells
[1]; vs trametinib alone
  fraction of cells in G0: reduced the fraction of cells in G0
[2]; [12]
  apoptotic cells (sub-G0 fraction): large increase in apoptotic cells
  proportion of quiescent cells: no such increase in proportion of quiescent cells was observed
[2]; [13]
  apoptotic cells (sub-G0 population): significant increases in apoptotic cells
  fraction of cells in G0: reduced the fraction of cells in G0
[3]
  phosphorylation of p27 (Western blot): decrease of the phosphorylation of p27
  total levels of p27 (Western blot): decrease
[4]; H23, combined with trametinib
  effect of combination on cytotoxicity: synergistic
[5]; A549, combined with selumetinib
  effect of combination on cytotoxicity of selumetinib: significant increase in cytotoxicity
[5]; A549, combined with trametinib
  effect of combination on cytotoxicity: synergistic
[6]; H2122, combined with AMG-510
  effect of combination on cytotoxicity: synergistic
[6]; H2122, combined with MRTX-849
  effect of combination on cytotoxicity: synergistic

## c1cncc(-c2ccnc3ccc(-c4c[nH]c5ncccc45)cc23)c1 [Compound II-1]
[7]; combined with selumetinib
  effect of combination on cytotoxicity: synergistic effect
[8]; H1975, combined with selumetinib
  effect of combination on cytotoxicity: synergistic effect
[9]; H358, combined with AMG-510
  effect of combination on cytotoxicity: synergistic
[9]; H358, combined with MRTX-849
  effect of combination on cytotoxicity: synergistic

## COc1ncc2cc(C(=O)Nc3cc(C(=O)NCc4cccc(Cl)c4)ccc3Cl)c(=O)[nH]c2n1 [TC-S 7004]
[10]
  effectiveness against quiescent and proliferating cancer cells in vitro: effective against both quiescent and proliferating cancer cells

## Cn1cnc2c(F)c(Nc3ccc(Br)cc3Cl)c(C(=O)NOCCO)cc21 [selumetinib]
[7]; Compound I-7 not present, highest selumetinib concentration 50 μM
  EC50: 238000 nM
[7]; Compound I-7 present at 1 μM, read-out: EC50 for selumetinib
  EC50: 173000 nM
[7]; Compound I-7 present, read-out: EC50 for selumetinib
  EC50: < 100 nM
[8]; Compound II-1 not present, highest selumetinib concentration 20 μM
  EC50: 59000 nM
[8]; Compound II-1 present at 1 μM, read-out: EC50 for selumetinib
  EC50: 130 nM
[5]; read-out: EC50 for selumetinib, Compound I-7 not present
  EC50: 2350 nM
[5]; read-out: EC50 for selumetinib, Compound I-7 present at 3 μM
  EC50: 920 nM
[5]; read-out: EC50 for selumetinib, Compound I-7 present at 6 μM
  EC50: 10 nM

## CC(=O)Nc1cccc(-n2c(=O)n(C3CC3)c(=O)c3c(Nc4ccc(I)cc4F)n(C)c(=O)c(C)c32)c1 [trametinib]
[11]; Compound I-7 not present
  EC50: 1.7 nM
[11]; Compound I-7 present at 5 μM
  EC50: 1.2 nM
[11]; Compound I-7 present at 10 μM
  EC50: < 0.01 nM
[4]; read-out: EC50 for trametinib, H23 2D, 96 h, Compound I-7 not present
  EC50: 19.2 nM
[4]; read-out: EC50 for trametinib, H23 2D, 96 h, Compound I-7 present at 0.12 μM
  EC50: 15.5 nM
[4]; read-out: EC50 for trametinib, H23 2D, 96 h, Compound I-7 present at 3.3 μM
  EC50: 11.8 nM
[5]; read-out: EC50 for trametinib, Compound I-7 not present
  EC50: 16.2 nM
[5]; read-out: EC50 for trametinib, Compound I-7 present at 2.2 μM
  EC50: 16 nM
[5]; read-out: EC50 for trametinib, Compound I-7 present at 6.73 μM
  EC50: 3.2 nM
